Test results from US10308682B2, “Inhibition of tumor growth with aggregates of small molecules” (BRANDEIS UNIVERSITY, priority 2013, dated 2019).

Legend:
[1] = Thioflavin T fluorescence quantification of aggregates of 1; type: physicochemical; settings: ThT emission, PBS buffer
[2] = tested on: HeLa cells; assay: Tubulin staining (tubulin tracker), HeLa cells; type: cell-based; settings: 24 h
Protocol: Cells in exponential growth phase were seeded in glass bottomed culture chamber at 10,000 cell/mL. The cells were allowed for attachment for 24 h at 37° C., 5% CO2. The culture medium was removed, and new culture medium containing 1 at 0 or 400 μM was added. After 24 h of incubation, cells were washed with PBS buffer for 3 times and stained by Tubulin Tracker™ Green at 100 nM and DAPI 300 nM in PBS for 30 min at 37° C. in dark. The sample was rinsed three times in PBS, and the cells were kept in PBS for imaging.
To confirm that the aggregates of 1 clusters multiple tubulin heterodimers and inhibit the formation of microtubules inside live cells, we used a tubulin tracker that selectively binds to tubulin polymers (microtubules) over tubulin monomers to stain the HeLa cells treated with 1 at different concentrations for 24 h. […] As the tubulin tracker only stains microtubule (i.e., polymerized tubulin heterodimers), the fluorescence from the cluster indicates the tubulin heterodimers in the clusters are short microtubules. […] The loss of microtubules induced by molecular aggregates of 1 explains the origins of the delay of cell migration and the arrest of cell-cycle in HeLa cells incubated with 400 or 500 μM of 1.

[3] = tested on: PC12 cells; assay: Tubulin staining (tubulin tracker), PC12 cells; type: cell-based; settings: 400 μM, 24 h
[4] = tested on: MCF-7; assay: Cell viability assay (MTT), MCF-7; type: cell-based
Protocol: (§1) Cells in exponential growth phase were seeded in a 96 well plate at a concentration of 50,000 cell/well. The cells were allowed to attach to the wells for 24 h at 37° C., 5% CO2, then the culture medium was removed and 100 μL new culture medium containing 1 at gradient concentrations was placed into each well. After culturing at 37° C., 5% CO2 for desired time, each well was added by 10 μL of 5 mg/mL MTT 43-(4,5-Dimethylthiazol-2-yl)-2,5-diphenyltetrazolium bromide), and the plated cells were incubate at dark for 4 h. 100 μL 10% SDS with 0.01 M HCl was added to each well to stop the reduction reaction and to dissolve the purple. After incubation of the cells at 37° C. for overnight, the viability is measured. Data represent the mean±standard deviation of three independent experiments.
(§2) The estimation of the threshold concentration of aggregation (320-340 μM) for 1 allows us to examine the cytotoxicity of 1 in monomer and molecular aggregate forms. We first tested the cytotoxicity of 1 towards HeLa cells, the most widely studied cancer cell line, below and above the threshold concentration.

[5] = tested on: HeLa tumors; assay: Xenograft mouse model, HeLa tumors, peritumoral injection; type: in vivo, Nu/nu mice
Protocol: FIG. 2 depicts the cytotoxicity of 1. Cell viability assay (MTT) of HeLa cells after 24 and 48 h of treatment with (a) as prepared or (b) filtered medium containing different concentrations of 1. Also shown are MTT assays of 1 towards (c) MCF 7, (d) HepG2, (e) T98G and (f) PC12 cell lines. Data are presented as mean±SD of three independent experiments. (g) Tumor progression curves of mice bearing HeLa tumors. 0.1 mL of 1 at 5 mM or 0.5 mM in PBS buffers or just PBS buffer as control (six doses, starting day 1) was subcutaneous peritumorally injected every three days. Data are presented as mean±SD of relative tumor volume (n=4 for treatment groups and n=3 for control group). *p<0.05, by Student's t test. (at day 19, 5 mM=bottom data point; 0.5 mM=middle data point; control=top data point). (h) A representative image to show the mice, started with similar initial tumor volume (V0), from each group on 19th day of treatment. White arrows point at tumor. See also FIG. 9, FIG. 10, and FIG. 11.
Nu/nu mice were injected with HeLa cells (5×10^6) subcutaneously for tumor development. Treatment was started when average tumor size reached 30 mm^3. Mice were divided into three groups. One group (n=3) received 0.1 mL PBS buffer as control, the other two groups (n=4) received 0.1 mL of 1 at 5 mM or 0.5 mM. Six doses were given every three days starting day 1. Progression of tumor was monitored until 19th day of the treatment.
To further assess the inhibitory effect of molecular aggregates of 1 to cancer cells, we inoculated HeLa cells on nude mice and treated the xenograft tumors with molecular aggregates of 1 by peritumoral injection.

[6] = tested on: PC12 cells; assay: Intracellular concentration of 1 in PC12 cells by LC-MS; type: cell-based; settings: 12 h at 37° C.
Protocol: FIG. 10 depicts the long term cytotoxicity of 1 on PC12 cells. Related to FIG. 2. (a) MTT viability test of cell incubated with gradient concentration of 1 for up to 7 days without changing medium. Data are presented as mean±SD of three independent experiments. (b) Intracellular concentration of 1 in PC12 cells treated with 1 for 12 h at 37° C. measured by LC-MS (left bar=400 μM; right bar=300 μM). (c) Cells were subcultured and re-seeded with new medium containing the same concentration of 1 (0 for control group and 400 μM for test group) every 4 days. Data are presented as mean±SD of three independent experiments.
FIG. 21 depicts the intracellular concentration of 1 in PC12 and T98G cells after incubation with 400 μM of 1 for 12 h. Cells in exponential growth phase were seeded in a 10 cm petri dish at 10,000 cell/mL. The cells were allowed to attach for 24 h at 37° C., 5% CO2. The culture medium was removed, and new culture medium containing 1 at 0 or 400 μM was added. After 12 h of incubation, cells were washed with PBS buffer 3 times and collected by cell scraper with 1 mL of PBS buffer. The cell suspension was centrifuged at 600 g for 5 min to obtain a cell pellet. 10 μL of the cell pellet were lysed in 200 μL of water and 200 μL of MeOH. […] The concentration of 1 in the lysate was measured by LC-MS.

[7] = tested on: MES-SA; assay: Cell viability assay (MTT), MES-SA; type: cell-based
Protocol: as §1, §2

O=C(Cc1ccc2ccccc2c1)N[C@@H](Cc1ccccc1)C(=O)N[C@@H](Cc1ccccc1)C(=O)O [Compound 1]
threshold concentration for the formation of molecular aggregates [1]: 320 to 340 µM | microtubule morphology ([2]; 200 μM): essentially the same morphology and distribution as those in the control cells | microtubule morphology ([2]; 300 μM): a small amount of the microtubules appear to be shorter than those in the control cells | microtubule morphology ([2]; 400 μM): large clusters surrounded by scattered microtubule fibrils | microtubule morphology ([2]; 400 μM, medium filtered by 0.22 μm PVDF membrane): (almost) normal microtubule networks, with only few clusters | microtubule morphology [3]: intact microtubule networks | cytotoxicity towards MCF-7 [4]: decreases of cell viabilities only observed at 400 and 500 μM | effect on tumor growth ([5]; 0.5 mM (~1 mg/kg), 0.1 mL peritumoral, every three days): little effect on tumor growth | surface of the skin covering and around the tumor ([5]; 5 mM): intact (with no ulceration or sclerosis) | effect on tumor progression ([5]; 5 mM (~10 mg/kg), 0.1 mL peritumoral, every three days): starts to inhibit tumor progression after 10th day of treatment | tumor size versus 0.5 mM group and control group ([5]; 5 mM, 19th day of treatment): significantly smaller | body weight change ([5]; 0.1 mL of 5 mM or 0.5 mM): no significant weight loss or weight gain | accumulation of 1 in PC12 cells versus HeLa cells [6]: much less amount of 1 than HeLa cells do | cytotoxicity towards MES-SA [7]: decreases of cell viabilities only observed at 400 and 500 μM
